Experimental data taken from the supplement of paper PMC9663587.

Columns and labels:
[1] = compound: CCc1cnn2c(NCc3ccc[n+]([O-])c3)cc(N3CCCC[C@H]3CCO)nc12; experiment: GR value, 72 h; higher = faster growth (1 = untreated, <0 = killing);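 also: breast cancer and non-malignant breast epithelial lines, nine half-log doses, viable cells counted by Hoechst and LIVE/DEAD dye imaging versus time-zero plates and DMSO controls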
[2] = compound: CCOc1cc2ncc(C#N)c(Nc3ccc(OCc4ccccn4)c(Cl)c3)c2cc1NC(=O)/C=C/CN(C)C [Neratinib/HKI272]; experiment: as above
[3] = compound: CN(C)C/C=C/C(=O)Nc1ccc(C(=O)N2CCC[C@@H](Nc3ncc(Cl)c(-c4c[nH]c5ccccc45)n3)C2)cc1 [THZ531]; experiment: as above
[4] = compound: CC(=O)c1c(C)c2cnc(Nc3ccc(N4CCN(CCOCCOCCOCCNC(=O)COc5cccc6c5C(=O)N(C5CCC(=O)NC5=O)C6=O)CC4)cn3)nc2n(C2CCCC2)c1=O [BSJ-03-123]; experiment: as above
[5] = compound: CCN1CCN(Cc2ccc(Nc3ncc(F)c(-c4cc(F)c5nc(C)n(C(C)C)c5c4)n3)nc2)CC1; experiment: as above
[6] = compound: T1, CN1CC[C@H](c2c(O)cc(O)c3c(=O)cc(-c4ccccc4Cl)oc23)[C@H](O)C1 [Flavopiridol]; experiment: as above
[7] = compound: CN(C)C/C=C/C(=O)Nc1ccc(C(=O)Nc2cccc(Nc3ncc(Cl)c(-c4c[nH]c5ccccc45)n3)c2)cc1 [THZ1]; experiment: as above
[8] = compound: C=CC(=O)Nc1ccc(C(=O)Nc2[nH]nc3c2CN(C(=O)N[C@H](CN(C)C)c2ccccc2)C3(C)C)cc1 [YKL-5-124]; experiment: as above
[9] = compound: CC(=O)c1c(C)c2cnc(Nc3ccc(N4CCNCC4)cn3)nc2n(C2CCCC2)c1=O; experiment: as above
[10] = compound: CN(C)C(=O)c1cc2cnc(Nc3ccc(N4CCNCC4)cn3)nc2n1C1CCCC1 [LEE011/Ribociclib]; experiment: as above
[11] = compound: CO[C@@H](C)Cn1c(=O)n(C)c2cnc3ccc(-c4cncc(C(C)(C)O)c4)cc3c21
[12] = compound: Cc1nc(-c2cn3c(n2)-c2ccc(-c4cnn(C(C)(C)C(N)=O)c4)cc2OCC3)n(C(C)C)n1 [Taselisib/GDC0032]
[13] = compound: CN(C)CC[C@H](CSc1ccccc1)Nc1ccc(S(=O)(=O)NC(=O)c2ccc(N3CCN(Cc4ccccc4-c4ccc(Cl)cc4)CC3)cc2)cc1[N+](=O)[O-] [ABT-737]
[14] = compound: CN1CCN(CCOc2cc(OC3CCOCC3)c3c(Nc4c(Cl)ccc5c4OCO5)ncnc3c2)CC1 [Saracatinib/AZD0530]
[15] = compound: T1, Flavopiridol
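For GR50, 72 h in this document: breast cancer and non-malignant breast epithelial cell lines, Deep Dye Drop or Dye Drop imaging, nine half-log doses, GR normalized to time-zero plates and DMSO-only controls.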

Cell Line: MDAMB453
- GR value ([1]; 0.0001 µM): 1.05 GR
- GR value ([1]; 0.0003162 µM): 1.06 GR
- GR value ([1]; 0.001 µM): 1.04 GR
- GR value ([1]; 0.003162 µM): 1.03 GR
- GR value ([1]; 0.01 µM): 0.645 GR
- GR value ([1]; 0.03162 µM): -0.173 GR
- GR value ([1]; 0.1 µM): -0.28 GR
- GR value ([1]; 0.3162 µM): -0.238 GR
- GR value ([1]; 1 µM): -0.242 GR
- GR value ([2]; 0.0003162 µM): 0.988 GR
- GR value ([2]; 0.001 µM): 0.937 GR
- GR value ([2]; 0.003162 µM): 0.825 GR
- GR value ([2]; 0.01 µM): 0.596 GR
- GR value ([2]; 0.03162 µM): 0.44 GR
- GR value ([2]; 0.1 µM): 0.366 GR
- GR value ([2]; 0.3162 µM): 0.139 GR
- GR value ([2]; 1 µM): -0.0602 GR
- GR value ([2]; 3.162 µM): -0.339 GR
- GR value ([3]; 0.0001 µM): 1.1 GR
- GR value ([3]; 0.0003162 µM): 0.965 GR
- GR value ([3]; 0.001 µM): 0.877 GR
- GR value ([3]; 0.003162 µM): 0.996 GR
- GR value ([3]; 0.01 µM): 0.851 GR
- GR value ([3]; 0.03162 µM): 0.38 GR
- GR value ([3]; 0.1 µM): -0.333 GR
- GR value ([3]; 0.3162 µM): -0.27 GR
- GR value ([3]; 1 µM): -0.266 GR
- GR value ([4]; 0.001 µM): 0.989 GR
- GR value ([4]; 0.003162 µM): 0.922 GR
- GR value ([4]; 0.01 µM): 0.874 GR
- GR value ([4]; 0.03162 µM): 0.843 GR
- GR value ([4]; 0.1 µM): 0.841 GR
- GR value ([4]; 0.3162 µM): 0.699 GR
- GR value ([4]; 1 µM): 0.639 GR
- GR value ([4]; 3.162 µM): 0.575 GR
- GR value ([4]; 10 µM): -0.011 GR
- GR value ([5]; 0.001 µM): 0.908 GR
- GR value ([5]; 0.003162 µM): 0.615 GR
- GR value ([5]; 0.01 µM): 0.211 GR
- GR value ([5]; 0.03162 µM): 0.0514 GR
- GR value ([5]; 0.1 µM): 0.0343 GR
- GR value ([5]; 0.3162 µM): 0.0775 GR
- GR value ([5]; 1 µM): 0.0548 GR
- GR value ([5]; 3.162 µM): 0.0127 GR
- GR value ([5]; 10 µM): -0.787 GR
- GR value ([6]; 0.0001 µM): 1.06 GR
- GR value ([6]; 0.0003162 µM): 1.04 GR
- GR value ([6]; 0.001 µM): 0.944 GR
- GR value ([6]; 0.003162 µM): 0.819 GR
- GR value ([6]; 0.01 µM): 0.916 GR
- GR value ([6]; 0.03162 µM): 1.05 GR
- GR value ([6]; 0.1 µM): 0.671 GR
- GR value ([6]; 0.3162 µM): 0.0173 GR
- GR value ([6]; 1 µM): -0.186 GR
- GR value ([7]; 0.0001 µM): 1 GR
- GR value ([7]; 0.0003162 µM): 0.935 GR
- GR value ([7]; 0.001 µM): 1.04 GR
- GR value ([7]; 0.003162 µM): 0.716 GR
- GR value ([7]; 0.01 µM): 0.61 GR
- GR value ([7]; 0.03162 µM): 0.0146 GR
- GR value ([7]; 0.1 µM): -0.0991 GR
- GR value ([7]; 0.3162 µM): -0.106 GR
- GR value ([7]; 1 µM): -0.277 GR
- GR value ([8]; 0.001 µM): 0.574 GR
- GR value ([8]; 0.003162 µM): 0.333 GR
- GR value ([8]; 0.01 µM): 0.209 GR
- GR value ([8]; 0.03162 µM): 0.209 GR
- GR value ([8]; 0.1 µM): 0.143 GR
- GR value ([8]; 0.3162 µM): 0.0956 GR
- GR value ([8]; 1 µM): 0.128 GR
- GR value ([8]; 3.162 µM): 0.143 GR
- GR value ([8]; 10 µM): -0.503 GR
- GR value ([9]; 0.0003162 µM): 1.08 GR
- GR value ([9]; 0.001 µM): 1.06 GR
- GR value ([9]; 0.003162 µM): 0.994 GR
- GR value ([9]; 0.01 µM): 0.851 GR
- GR value ([9]; 0.03162 µM): 0.607 GR
- GR value ([9]; 0.1 µM): 0.278 GR
- GR value ([9]; 0.3162 µM): 0.105 GR
- GR value ([9]; 1 µM): 0.0968 GR
- GR value ([9]; 3.162 µM): 0.0641 GR
- GR value ([10]; 0.001 µM): 0.717 GR
- GR value ([10]; 0.003162 µM): 0.647 GR
- GR value ([10]; 0.01 µM): 0.562 GR
- GR value ([10]; 0.03162 µM): 0.637 GR
- GR value ([10]; 0.1 µM): 0.461 GR
- GR value ([10]; 0.3162 µM): 0.365 GR
- GR value ([10]; 1 µM): 0.273 GR
- GR value ([10]; 3.162 µM): 0.225 GR
- GR value ([10]; 10 µM): 0.208 GR
- GR50, 72 h [11]: < 0.001 µM
- GR50, 72 h [12]: 0.00346 µM
- GR50, 72 h [13]: 5.97 µM
- GR50, 72 h [14]: 8.37 µM
- GR50, 72 h [15]: 0.134 µM
